Experimental data taken from PubChem BioAssay (NCI).
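Exposure lasted 48 hours, with cells grown in 96-well plates and compounds tested at five concentrations. GI50 is the concentration that inhibits growth by half. TGI: total growth inhibition.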

Legend:
Assay in all cases: DTP human tumour cell line panel, 48 h
SN12C renal = tested on: SN12C renal
A498 renal = tested on: A498 renal
ACHN renal = tested on: ACHN renal
MDA-MB-435 = tested on: MDA-MB-435
SNB-75 CNS = tested on: SNB-75 CNS
786-0 renal = tested on: 786-0 renal
HS 578T breast = tested on: HS 578T breast
LOX IMVI melanoma = tested on: LOX IMVI melanoma
HCT-116 colon = tested on: HCT-116 colon
MCF7 breast = tested on: MCF7 breast

Row | SMILES | TGI (SN12C renal) [µM] | TGI (A498 renal) [µM] | TGI (ACHN renal) [µM] | TGI (MDA-MB-435) [µM] | TGI (SNB-75 CNS) [µM] | TGI (786-0 renal) [µM] | TGI (HS 578T breast) [µM] | TGI (LOX IMVI melanoma) [µM] | TGI (HCT-116 colon) [µM] | TGI (MCF7 breast) [µM] | GI50 (SN12C renal) [µM] | GI50 (A498 renal) [µM] | GI50 (ACHN renal) [µM] | GI50 (MDA-MB-435) [nM] | GI50 (SNB-75 CNS) [nM] | GI50 (786-0 renal) [µM] | GI50 (HS 578T breast) [µM] | GI50 (LOX IMVI melanoma) [nM] | GI50 (HCT-116 colon) [nM] | GI50 (MCF7 breast) [nM]
1 | C=C(C)[C@@H]1CC[C@]2(C)CC[C@]3(C)[C@H](CC[C@@H]4[C@@]5(C)CC[C@H](O)C(C)(C)[C@@H]5CC[C@]43C)[C@@H]12 | > 100 | 32.6 | > 100 | 40.4 | > 80.1 | > 63.8 | 61.7 | 36.3 | > 100 | 55.2 | – | – | – | – | – | – | – | – | – | –
2 | C=C1C(=O)O[C@H]2[C@H]1CC/C(CNC(=O)/C=C/c1cc(OC)c(OC)c(OC)c1)=C\CC[C@@]1(C)O[C@@H]21 | 14.3 | 15.7 | 2.89 | 13.5 | 22.9 | 2.9 | 27.9 | 2.63 | 2.1 | 10.8 | 3.46 | 4.1 | 1.27 | 2330 | 2930 | 1.29 | 4.54 | 1280 | 760 | 531
3 | O=c1[nH]nnc2c1ncn2C1OC(CO)C(O)C1O (stereo not given) | > 100 | > 100 | > 100 | > 100 | > 100 | > 100 | > 100 | > 100 | > 100 | > 100 | 38.3 | 61.3 | 1.8 | 14200 | 990 | 24 | > 100 | 2230 | 7590 | 17300
4 | CCOC(=O)Nc1ccc2c(c1)/C(=N\NC(N)=S)c1ccccc1-2 | 65.7 | 8.18 | 15.7 | 18.3 | 18.2 | 9.08 | 36.7 | 20.2 | 50 | 23.8 | 5.94 | 2.39 | 3.87 | 3580 | 4190 | 3.06 | 5.43 | 3520 | 4320 | 3150
5 | COc1ccc2[nH]cc(-c3ccc(-c4c[nH]c5ccc(OC)cc45)s3)c2c1 | 33.6 | 14.3 | 15.9 | > 41.4 | 19.5 | 7.64 | 44.6 | 5 | 11.7 | 27 | 11.1 | 3.58 | 4.14 | 8320 | 7120 | 2.36 | 8.99 | 2200 | 3620 | 4720
6 | C=C1C(=O)O[C@H]2[C@H]1CC/C(COC(=O)CSCSCC(=O)OC/C1=C/CC[C@@]3(C)O[C@H]3[C@H]3OC(=O)C(=C)[C@@H]3CC1)=C\CC[C@@]1(C)O[C@@H]21 | 3.85 | 14.8 | 2.6 | 4.56 | – | 2.89 | 64.2 | 2.65 | 1.93 | 2.25 | 1.65 | 3.83 | 1.33 | 2000 | – | 1.41 | 4.88 | 1300 | 590 | 642
7 | O=c1[nH]c(=O)c2cn[nH]c2[nH]1 | > 100 | > 100 | > 100 | > 100 | > 100 | > 100 | > 100 | > 100 | > 100 | > 100 | > 100 | > 100 | > 100 | > 100000 | > 100000 | > 100 | > 100 | > 100000 | > 100000 | > 100000
8 | CN(CCO)CC[C@H](CSc1ccccc1)Nc1ccc(S(=O)(=O)NC(=O)c2ccc(N3CCC([C@@H](O)c4ccccc4-c4ccc(Cl)cc4)CC3)cc2)cc1S(=O)(=O)C(F)(F)F | 11.5 | 0.252 | > 100 | 6.51 | 34.2 | 10.1 | 7.27 | 2.97 | 6.8 | 12.2 | 2.99 | 0.0288 | > 27.8 | 2310 | 3630 | 3.62 | 2.23 | 1430 | 2260 | 2970
9 | O.O.[NH-]C1(C(=O)O)CCCC1.[NH-]C1(C(=O)O)CCCC1.[Ni+2] | > 100 | > 100 | > 100 | > 100 | > 100 | > 100 | > 100 | > 100 | > 100 | > 100 | – | – | > 100 | > 100000 | – | > 100 | > 100 | – | – | –
10 | O=C1C(Cl)=C(Nc2cccc(Cl)c2)C(=O)N1Cc1ccc(Cl)cc1 | 5.93 | 11.9 | 15 | 2.91 | 14.6 | 5.48 | 11.1 | 8.49 | 6.53 | 13.6 | 1.24 | 1.55 | 1.39 | 396 | 1480 | 0.186 | 0.913 | 408 | 442 | 499
11 | CCN(Cc1cc(Nc2nc(C)cn3c(-c4cn[nH]c4)cnc23)sn1)C(C)(C)CO | 10.5 | 0.0163 | 11.9 | 1.31 | 0.0365 | 2.73 | 0.0855 | 0.199 | 2.3 | 2.01 | 0.0301 | < 0.01 | 0.0306 | 82.6 | 10.7 | 0.0473 | 0.0227 | < 12.5 | 12.7 | 26
12 | O=C(c1ccccc1)c1ccccc1-c1ccccc1 | > 100 | 15.6 | > 100 | 7.87 | 19.8 | 90.7 | 10.2 | > 100 | 30.1 | > 100 | 8.46 | 2.08 | 9.46 | 325 | 2110 | 10.6 | 1.58 | 5960 | 3170 | 2970
13 | CCOc1cccc(/C=N/N=C2\C(=O)Nc3c(Cl)cc(Cl)cc32)c1O | > 100 | > 100 | > 100 | > 100 | 89.6 | > 100 | > 100 | > 100 | > 100 | > 100 | – | – | – | – | – | – | – | – | – | –
14 | COc1ccc(-c2nn(-c3cccc(Cl)c3)cc2-c2cc(-c3cccs3)[nH]c(=S)n2)cc1 | > 100 | 17 | > 100 | 19 | 25.6 | > 100 | > 100 | 13.8 | 11.2 | 33.4 | 3.92 | 3.01 | 4.05 | 3130 | 3490 | 4.18 | 4.26 | 3560 | 2380 | 3020
15 | O=C(Nc1ccc([As](=O)(O)O)cc1)Nc1cccc(Cl)c1Cl | > 100 | > 100 | > 100 | > 100 | 65.4 | > 100 | 84.8 | > 100 | > 100 | > 100 | – | – | – | – | – | – | – | – | – | –
16 | ClCc1cccc2c(CCl)cccc12 | 32.2 | 23.7 | 6.21 | 18.7 | 14.6 | 18.9 | 6.7 | 4.3 | 19.1 | 7.54 | 3.47 | 11 | 2.19 | 4280 | 2100 | 3.93 | 1.86 | 1390 | 4180 | 871
17 | CC(C)Cn1cnc2c(SCc3ccc(Cl)cc3Cl)nc(N)nc21 | > 100 | 49.5 | 76.5 | > 100 | > 100 | > 100 | > 100 | 38.3 | > 100 | 47.8 | – | – | – | – | – | – | – | – | – | –
18 | CNC(=O)Nc1nc2ccc([N+](=O)[O-])cc2[nH]1 | > 100 | > 100 | > 100 | > 100 | – | > 100 | > 100 | > 100 | > 100 | > 100 | – | – | – | – | – | – | – | – | – | –
19 | CCOC(=O)c1c(C)nc2c(c1N)CC(=O)N2Cc1ccc(OC)cc1 | > 100 | – | > 100 | > 100 | 25.8 | 27.8 | > 100 | > 100 | – | > 100 | > 100 | – | 9.56 | > 100000 | 3400 | 3.45 | 4.78 | > 100000 | – | > 100000
20 | COc1ccc(/C=C/C(=O)c2cc(OC)c(OC)c(OC)c2)cc1OCc1cn(Cc2ccc(F)cc2)nn1 | > 100 | 56.2 | 16.7 | > 100 | – | > 100 | > 100 | 18.7 | 10.7 | > 100 | 3.12 | 12.2 | 3.53 | 2780 | – | 4.44 | 3.38 | 2750 | 2380 | 2430
